Assay results taken from patent US20030040510A1, “Selective estrogen receptor modulators in combination with estrogens” (Endorecherche, Inc., priority 2000, published 2003).

Test system: breast and endometrial tissues
Assay: Antiestrogens tested for SERM function and estrogenic activity in breast and endometrium

## CC1=C(c2ccc(O)cc2)[C@H](c2ccc(OCCN3CCCCC3)cc2)Oc2cc(O)ccc21.Cl [EM-652.HCl, (S)-(+)-7-hydroxy-3-(4′-hydroxyphenyl)-4-methyl-2-(4″-(2′″-piperidinoethoxy)phenyl)-2H-1-benzopyran hydrochloride]
  Function as SERM: found to function as SERMs
Physiological or pharmacological concentrations
  Estrogenic activity in breast and endometrial tissues: do not have any estrogenic activity
